# Data as given in patent publication US20240327413A1, “NLRP3 MODULATORS” (Zomagen Biosciences Ltd, priority 2021, published 2024).
# Tested on: IL-1b
# Test: Human Monocyte IL-1b Assay (fresh human whole blood, LPS priming, ATP stimulation, ELISA)
# Assay type: cell-based
# Settings: Homo sapiens, read-out: IL-1b (IC50)
# Method: Serially diluted testing compounds were incubated with […] of fresh human whole blood for 0.5 hours. Cells were primed with 100 ng/mL lipopolysaccharide (LPS) for 3.5 hours at 37° C. followed by stimulation with 5 mM ATP for an additional 45 minutes. The concentration of IL-1b concentration in the supernatant was determined with commercially available ELISA kits. Negative controls are wells without stimulation, while positive controls are wells with stimulation but only DMSO without compounds added. After background subtraction, compound treatment wells were then normalized to the positive controls for IC50 calculations.
row,Structure (SMILES),IC50 [nM]
1,"Cc1ccc(-c2nnc(OC3CCCN(C)C3)c3ccccc23)c(O)c1 (centres unmarked) [Compound 23, 5-methyl-2-(4-((1-methylpiperidin-3-yl)oxy)phthalazin-1-yl)phenol]",300 to 3000

# Same assay, conditions: fresh human whole blood, 100 ng/mL LPS 3.5 hours, then 5 mM ATP 45 minutes, IL-1b in supernatant by ELISA, read-out: IL-1b (IC50)
row,IC50 [nM],Structure (SMILES)
1,< 300,"Cc1ccc(-c2nnc(N[C@@H]3CCCN(C)C3)c3c2CCC3)c(O)c1F [Compound 10, (R)-2-fluoro-3-methyl-6-(4-((1-methylpiperidin-3-yl)amino)-6,7-dihydro-5H-cyclopenta[d]pyridazin-1-yl)phenol]"
2,< 300,"Cc1cc(C)c(-c2nnc(N[C@@H]3CCCN(C)C3)c3c2CCC3)c(O)c1 [Compound 7, 3,5-dimethyl-2-(4-(((R)-1-methylpiperidin-3-yl)amino)-6,7-dihydro-5H-cyclopenta[d]pyridazin-1-yl)phenol]"
3,< 300,"CN1CCC[C@@H](Nc2nnc(-c3ccc4c(c3O)CCC4)c3ccccc23)C1 [Compound 4, (R)-5-(4-((1-methylpiperidin-3-yl)amino)phthalazin-1-yl)-2,3-dihydro-1H-inden-4-ol]"
4,< 300,"Cc1ccc(-c2nnc(N[C@@H]3CCCN(C)C3)c3c2CCC3)c(O)c1 [Compound 8, (R)-5-methyl-2-(4-((1-methylpiperidin-3-yl)amino)-6,7-dihydro-5H-cyclopenta[d]pyridazin-1-yl)phenol]"
5,< 300,"Cc1ccc(-c2nnc(N[C@@H]3CCCN(C)C3)c3ccccc23)c(O)c1 [Compound 2, (R)-5-methyl-2-(4-((1-methylpiperidin-3-yl)amino)phthalazin-1-yl)phenol]"
6,300 to 3000,"Cc1cc(O)c(-c2nnc(N[C@@H]3CCCN(C)C3)n3cccc23)cc1F [Compound 26, (R)-4-fluoro-5-methyl-2-(4-((1-methylpiperidin-3-yl)amino)pyrrolo[1,2-d][1,2,4]triazin-1-yl)phenol]"
7,< 300,"CN1CCC[C@@H](Nc2nnc(-c3ccc(C(F)(F)F)cc3O)c3ccsc23)C1 [Compound 19, (R)-2-(7-((1-methylpiperidin-3-yl)amino)thieno[2,3-d]pyridazin-4-yl)-5-(trifluoromethyl)phenol]"
8,< 300,"Cc1cc(C)c(-c2nnc(N[C@@H]3CCCN(C)C3)c3ccccc23)c(O)c1 [Compound 1, 3,5-dimethyl-2-(4-(((R)-1-methylpiperidin-3-yl)amino)phthalazin-1-yl)phenol]"
9,300 to 3000,"CN1CCC[C@@H](Nc2nnc(-c3ccc4c(c3O)CCC4)c3cccn23)C1 [Compound 27, (R)-5-(4-((1-methylpiperidin-3-yl)amino)pyrrolo[1,2-d][1,2,4]triazin-1-yl)-2,3-dihydro-1H-inden-4-ol]"
10,< 300,"CN1CCC[C@@H](Nc2nnc(-c3ccc(C(F)(F)F)cc3O)c3sccc23)C1 [Compound 20, (R)-2-(4-((1-methylpiperidin-3-yl)amino)thieno[2,3-d]pyridazin-7-yl)-5-(trifluoromethyl)phenol]"
11,3000 to 10000,"CCOC(=O)c1cc(C)ccc1-c1nnc(N[C@@H]2CCCN(C)C2)c2ccccc12 [Compound 6, ethyl (R)-5-methyl-2-(4-((1-methylpiperidin-3-yl)amino)phthalazin-1-yl)benzoate]"
12,< 300,"Cc1ccc(-c2nnc(N[C@@H]3CCCN(C)C3)n3cccc23)c(O)c1 [Compound 24, (R)-5-methyl-2-(4-((1-methylpiperidin-3-yl)amino)pyrrolo[1,2-d][1,2,4]triazin-1-yl)phenol]"
13,< 300,"Cc1cc(O)c(-c2nnc(N[C@@H]3CCCN(C)C3)c3ccccc23)cc1F [Compound 5, (R)-4-fluoro-5-methyl-2-(4-((1-methylpiperidin-3-yl)amino)phthalazin-1-yl)phenol]"
14,< 300,"Cc1cc(C)c(-c2nnc(N[C@@H]3CCCN(C)C3)n3cccc23)c(O)c1 [Compound 13, (R)-3,5-dimethyl-2-(4-((1-methylpiperidin-3-yl)amino)pyrrolo[1,2-d][1,2,4]triazin-1-yl)phenol]"
15,< 300,"CN1CCC[C@@H](Nc2nnc(-c3ccc(C(F)(F)F)cc3O)c3cscc23)C1 [Compound 22, (R)-2-(4-((1-methylpiperidin-3-yl)amino)thieno[3,4-d]pyridazin-1-yl)-5-(trifluoromethyl)phenol]"
16,< 300,"Cc1ccc(-c2nnc(N[C@@H]3CCCN(C)C3)c3c2CCCC3)c(O)c1 [Compound 11, (R)-5-methyl-2-(4-((1-methylpiperidin-3-yl)amino)-5,6,7,8-tetrahydrophthalazin-1-yl)phenol]"
17,< 300,"Cc1ccc(-c2nnc(N[C@@H]3CCCN(C)C3)c3cscc23)c(O)c1 [Compound 21, (R)-5-methyl-2-(4-((1-methylpiperidin-3-yl)amino)thieno[3,4-d]pyridazin-1-yl)phenol]"
18,300 to 3000,"Cc1ccc(-c2nnc(N(C)[C@@H]3CCCN(C)C3)c3ccccc23)c(O)c1 [Compound 12, (R)-5-methyl-2-(4-(methyl(1-methylpiperidin-3-yl)amino)phthalazin-1-yl)phenol]"
19,< 300,"Cc1cc(O)c(-c2nnc(N[C@@H]3CCCN(C)C3)n3cccc23)c(F)c1 [Compound 14, (R)-3-fluoro-5-methyl-2-(4-((1-methylpiperidin-3-yl)amino)pyrrolo[1,2-d][1,2,4]triazin-1-yl)phenol]"
